Measurements from ChEMBL document CHEMBL4888484, “Replenishing the malaria drug discovery pipeline: Screening and hit evaluation of the MMV Hit Generation Library 1 (HGL1) against asexual blood stage Plasmodium falciparum ,using a nano luciferase reporter read-out” (2022).

Assays:
Plasmodium falciparum [1] = experiment: Hit confirmation in dose-response curve in NF54 nanoGlo assay, at 72h; format: functional, organism-based, Erythrocyte; parameters: timepoint 72 hour; settings: Plasmodium falciparum, NF54, Erythrocyte, 72 h
Plasmodium falciparum [2] = experiment: Hit confirmation in dose-response curve in Dd2 pLDH assay, at 72h; format: functional, organism-based; parameters: timepoint 72 hour; settings: Dd2, Erythrocyte
Plasmodium falciparum [3] = experiment: Hit confirmation in dose-response curve in NF54 nanoGlo assay, at 12h; format: functional, organism-based, Erythrocyte; parameters: timepoint 12 hour; settings: Plasmodium falciparum, NF54, Erythrocyte, 12 h
Plasmodium falciparum [4] = experiment: Hit confirmation in dose-response curve in NF54 pLDH assay, at 72h; format: functional, organism-based; parameters: timepoint 72 hour; settings: NF54, Erythrocyte
[5] = Hit confirmation in dose-response curve in HepG2 cytotoxicity assay, at 72h; format: toxicity, cell-based; parameters: timepoint 72 hour; settings: human, HepG2 cells

Compound | IC50 (Plasmodium falciparum [1]) | IC50 (Plasmodium falciparum [2]) | IC50 (Plasmodium falciparum [3]) | IC50 (Plasmodium falciparum [4]) | IC50 at 72 h [5]
CCOc1ccc(-c2cc(NC(=O)c3cc(-c4cccnc4)nc4ccccc34)on2)cc1OCC | 1.91 µM | 4.9 µM | 2.69 µM | > 10 µM | > 10 µM
O=C(c1ccc2c(c1)OCO2)N1CCn2c1nc1ccccc12 | 1.58 µM | > 10 µM | 0.513 µM | > 10 µM | > 10 µM
CCc1cccc(NC(=O)Cn2ccc3ccc(-c4nnc(C)o4)cc32)c1 | 1.82 µM | 2.4 µM | 2.63 µM | 2.69 µM | > 10 µM
Cc1cccc(-c2nc(C[N+]3(Cc4nc(-c5cccc(C)c5)oc4C)CCCC3)c(C)o2)c1 | 2.82 µM | 3.39 µM | > 10 µM | 4.79 µM | > 10 µM
CCC(CC)C(=O)Nc1cc(C2CC2)nn1-c1nc(-c2ccccc2)cc(=O)[nH]1 | 2.14 µM | 3.55 µM | > 10 µM | 6.61 µM | > 10 µM
O=c1[nH]c(=O)n(S(=O)(=O)c2ccccc2)cc1F | 0.00275 µM | > 10 µM | 2.04 µM | 0.00347 µM | > 10 µM
Cn1c(Cc2n[n+]3c(-c4ccccc4)cc(-c4ccccc4)nc3n2C)n[n+]2c(-c3ccccc3)cc(-c3ccccc3)nc12 | 0.257 µM | 0.234 µM | 1.74 µM | 0.331 µM | 4.79 µM
COc1cc([C@H](CC(=O)NC2CCN(Cc3ccccc3)CC2)N2Cc3ccccc3C2=O)cc(OC)c1OC | 2.4 µM | 3.72 µM | 5.75 µM | 2.75 µM | > 10 µM
COc1ccc(OC)c(NC(=O)CN2CCc3[nH]c4ccc(F)cc4c(=O)c3C2)c1 | 8.32 µM | 7.94 µM | > 10 µM | > 10 µM | > 10 µM
Cc1ccc(C(F)(F)C(=O)NCCC(=O)NS(C)(=O)=O)cc1 | 2.75 µM | > 10 µM | > 10 µM | 0.447 µM | > 10 µM
CC1CC(C(=O)Nc2[nH]c(=O)ncc2F)CC(C)(C)C1 (stereo not given) | 0.00204 µM | > 10 µM | 0.49 µM | 0.00331 µM | > 10 µM
O=c1c2ccccc2nc2cc(-c3ccc(O)cc3)c(-c3ccccc3)nn12 | 2.14 µM | > 10 µM | 3.63 µM | > 10 µM | > 10 µM
Oc1c([C@@H](c2ccccn2)N2CCCC2)ccc2cccnc12 | 2.14 µM | 2.34 µM | 3.55 µM | 7.76 µM | > 10 µM
Cc1cc(N2CC(OCc3ccccc3)C2)nc(Nc2cccc(O)c2)n1 | 1.38 µM | 1.45 µM | 2.88 µM | 2.63 µM | > 10 µM
COc1c(C)cc(C(=O)[C@H]2CCCN(c3cc(N)ncn3)C2)cc1C | 5.37 µM | > 10 µM | 5.5 µM | > 10 µM | > 10 µM
CCC1=Nc2ccccc2N=C(NC(=O)C(C)C)[C@H]1c1ccc(F)cc1 | 2.45 µM | 8.32 µM | 3.8 µM | 7.24 µM | > 10 µM
NCc1cccc(C(=O)N2CCc3cc4ccc3[C@@H]2c2cccc(c2)OCCCNC(=O)c2cc(ccc2O)O4)c1 | 1.51 µM | 3.72 µM | 3.72 µM | 6.92 µM | > 10 µM
O=S(=O)(c1ccc(F)c(Cl)c1)N1CC[C@H](Oc2ccncc2Cl)C1 | 1.86 µM | 2.69 µM | 3.24 µM | 7.59 µM | > 10 µM
CCOC1CC(NC2CC(c3ccc(F)cc3)C2)C12CCC2 (stereo not given) | 5.01 µM | 2.63 µM | 6.31 µM | 3.63 µM | > 10 µM
COc1ccc(CCNC(=O)c2cc3c(=O)[nH]c(C)cn3n2)cc1OC | 1.45 µM | > 10 µM | 0.457 µM | > 10 µM | > 10 µM
